Where two headings read alike, the source gives them in different places. Where no end group is shown, it is not given here.
Legend:
Experiment in all cases: Direct-binding FRET assay
[1] = target: T1, HLF (Homo sapiens, UniProt Q16534); settings: read-out: Kd
T1 construct: made in house
T1 sequence (Q16534 225-288 limits assumed): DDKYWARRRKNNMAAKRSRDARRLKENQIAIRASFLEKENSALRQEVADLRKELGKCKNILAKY
Method in brief: (§1)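 Heterodimer affinities are derived from FRET titrations fitted with a dimerization model that uses homodimer Kd values of the designed peptide and of the target bZIPs. Interactions giving under 15% donor change are labelled "NS".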

[2] = target: T2, FOSL1 (Homo sapiens, UniProt P15407); settings: mean or single, read-out: Kd
T2 construct: made in house
T2 sequence (P15407 105-168 limits assumed): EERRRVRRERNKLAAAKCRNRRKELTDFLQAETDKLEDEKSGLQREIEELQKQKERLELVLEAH
Method in brief: as §1

[3] = target: T3, ATF5 (Homo sapiens, UniProt Q9Y2D1); settings: mean or single, read-out: Kd
T3 construct: made in house
T3 sequence (Q9Y2D1 208-271 limits assumed): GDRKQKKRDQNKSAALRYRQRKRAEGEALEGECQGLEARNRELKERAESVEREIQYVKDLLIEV
Method in brief: as §1

[4] = target: T4, CREBZF (Homo sapiens, UniProt Q9NS37); settings: read-out: Kd
T4 construct: made in house
T4 sequence (Q9NS37 204-267 limits assumed): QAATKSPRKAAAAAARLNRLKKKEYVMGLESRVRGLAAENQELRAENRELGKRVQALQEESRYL
Method in brief: as §1

[5] = target: T5, NFIL3 (Homo sapiens, UniProt Q16649); settings: read-out: Kd
T5 construct: made in house
T5 sequence (Q16649 73-136 limits assumed): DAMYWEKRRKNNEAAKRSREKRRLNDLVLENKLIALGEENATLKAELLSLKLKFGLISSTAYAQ
Method in brief: as §1

[6] = target: ATF6 (Homo sapiens, UniProt P18850); parameters: made in house; settings: read-out: Kd
Description: (§2) The direct binding assay was performed manually in 384-well plates and is similar to a previously described assay. Wells were filled with 20 μL of 1 mM TCEP-HCl. A 4 μM stock of acceptor protein was made fresh in 1 mM TCEP-HCl, and 20 μL was titrated in 2-fold dilutions over the wells. […] The direct-binding FRET data were fit as previously described. Briefly, the Kd of the designed peptide homodimer was experimentally determined and used with previously determined target homodimer Kd values to determine the heterodimer Kd. The homodimer Kd values used for the human bZIPs were from; experiments done by […] et al. used the same protein constructs for the human bZIP proteins, the same buffer conditions, and the same assay. The fitting used a system of ordinary differential equations to describe the concentrations of homo and heterodimers formed by the donor (D) and acceptor (A) as a function of the heterodimer Kd. MATLAB was used to simulate the binding experiment for different Kd values, and the value that gave the best agreement between simulation and experiment was assigned. A minimum 15% change in the donor fluorescence upon titrating the acceptor peptide from 0 to 1000 nM was required for a fit to be attempted. If this minimum was not met, the interaction was classified as “NS” for no signal change. […] These interactions were marked “AS” to indicate anomalous signal. We attributed this to interactions between the peptides, the dyes and the walls of the assay plates at low concentrations. These curves could not be fit, given their unusual shapes at low concentrations of acceptor. For such curves, we removed the first five points and re-fit the data. […] One example of this is increasing concentrations of acceptor causing an increase in donor fluorescence.

[7] = target: MAF (Homo sapiens, UniProt O75444); parameters: made in house; settings: read-out: Kd
Description: as §2

[8] = target: MAFB (Homo sapiens, UniProt Q9Y5Q3); parameters: made in house; settings: read-out: Kd
Description: as §2

[9] = target: BACH2 (Homo sapiens, UniProt Q9BYV9); parameters: made in house; settings: read-out: Kd
Description: as §2

[10] = target: BACH1 (Homo sapiens, UniProt O14867); parameters: made in house; settings: read-out: Kd
Description: as §2

[11] = target: NFE2L1 (Homo sapiens, UniProt Q14494); parameters: made in house; settings: read-out: Kd
Description: as §2

[12] = 4°C, C-terminal fluorescein design as donor, TAMRA target titrated
[13] = 4°C, C-terminal rhodamine design, mean or single
[14] = 4°C, N-terminal rhodamine design, mean or single
[15] = 23°C, C-terminal fluorescein design as donor, TAMRA target titrated
[16] = 23°C, C-terminal rhodamine design, mean or single
[17] = 23°C, N-terminal rhodamine design, mean or single
[18] = 37°C, C-terminal fluorescein design as donor, TAMRA target titrated
[19] = 37°C, C-terminal rhodamine design, mean or single
[20] = 37°C, N-terminal rhodamine design, mean or single
[21] = 4°C, C-terminal rhodamine design
[22] = 4°C, N-terminal rhodamine design
[23] = 23°C, C-terminal rhodamine design
[24] = 23°C, N-terminal rhodamine design
[25] = 37°C, C-terminal rhodamine design
[26] = 37°C, N-terminal rhodamine design
[27] = 37°C, C-terminal rhodamine design, repeat 1
[28] = 37°C, C-terminal rhodamine design, repeat 2
[29] = 37°C, C-terminal rhodamine design, repeat 3

Chain of BACH2 (Q9BYV9 646-709 limits assumed): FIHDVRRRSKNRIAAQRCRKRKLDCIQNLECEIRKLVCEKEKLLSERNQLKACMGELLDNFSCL
Chain of MAFB (Q9Y5Q3 238-301 limits assumed): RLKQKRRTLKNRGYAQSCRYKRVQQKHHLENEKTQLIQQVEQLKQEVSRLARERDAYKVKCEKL
Chain of NFE2L1 (Q14494 654-717 limits assumed): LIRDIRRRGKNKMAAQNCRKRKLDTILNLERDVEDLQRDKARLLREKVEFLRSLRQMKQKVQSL
Chain of ATF6 (P18850 306-369 limits assumed): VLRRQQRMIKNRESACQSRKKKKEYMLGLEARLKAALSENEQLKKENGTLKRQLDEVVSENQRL
Chain of MAF (O75444 288-351 limits assumed): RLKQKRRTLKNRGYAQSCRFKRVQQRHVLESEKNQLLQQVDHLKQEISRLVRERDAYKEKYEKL

For “EREAQLENRVAHLKEKNQELKAQNLHLKEALSEAQNRNQELKNDA [XBP1-d1]”, the Kd [1, 12] was > 1 µM, the Kd [1, 13] was > 1 µM and the Kd [1, 14] was > 1 µM. For the same sequence, the Kd [1, 15] was > 1 µM, the Kd [1, 16] was > 1 µM and the Kd [1, 17] was > 1 µM. The Kd [1, 18] was > 1 µM, the Kd [1, 19] was > 1 µM and the Kd [1, 20] was > 1 µM. The Kd [2, 21] was > 1 µM, the Kd [2, 22] was > 1 µM and the Kd [2, 23] was > 1 µM. The Kd [2, 24] was > 1 µM, the Kd [2, 25] was > 1 µM and the Kd [2, 26] was > 1 µM. The Kd [3, 21] was > 1 µM, the Kd [3, 22] was > 1 µM and the Kd [3, 23] was > 1 µM. The Kd [3, 24] was > 1 µM, the Kd [3, 25] was > 1 µM and the Kd [3, 26] was > 1 µM. For the same sequence, the Kd [4, 12] was > 1 µM, the Kd [4, 14] was > 1 µM and the Kd [4, 15] was > 1 µM. For the same sequence, the Kd [4, 17] was > 1 µM, the Kd [4, 18] was > 1 µM and the Kd [4, 19] was > 1 µM. The Kd [4, 27] was > 1 µM, the Kd [4, 28] was > 1 µM and the Kd [4, 29] was > 1 µM. The Kd [4, 20] was > 1 µM, the Kd [5, 12] was > 1 µM and the Kd [5, 13] was > 1 µM. The Kd [5, 14] was > 1 µM, the Kd [5, 15] was > 1 µM and the Kd [5, 16] was > 1 µM. For the same sequence, the Kd [5, 17] was > 1 µM, the Kd [5, 18] was > 1 µM and the Kd [5, 19] was > 1 µM. The Kd [5, 20] was > 1 µM, the Kd [6, 12] was > 5 µM and the Kd [6, 15] was > 1 µM. The Kd [6, 17] was > 1 µM, the Kd [6, 18] was > 1 µM and the Kd [6, 19] was > 5 µM. For the same sequence, the Kd [6, 27] was > 5 µM, the Kd [6, 28] was > 5 µM and the Kd [6, 29] was > 5 µM. The Kd [6, 20] was > 1 µM, the Kd [7, 12] was > 1 µM and the Kd [7, 13] was > 1 µM. For the same sequence, the Kd [7, 14] was > 1 µM, the Kd [7, 15] was > 1 µM and the Kd [7, 16] was > 1 µM. The Kd [7, 17] was > 1 µM, the Kd [7, 18] was > 1 µM and the Kd [7, 19] was > 1 µM. For the same sequence, the Kd [7, 20] was > 1 µM, the Kd [8, 12] was > 1 µM and the Kd [8, 13] was > 5 µM. For the same sequence, the Kd [8, 14] was > 1 µM, the Kd [8, 15] was > 1 µM and the Kd [8, 16] was > 5 µM. The Kd [8, 17] was > 1 µM, the Kd [8, 18] was > 1 µM and the Kd [8, 19] was > 5 µM. The Kd [8, 20] was > 1 µM, the Kd [9, 12] was > 1 µM and the Kd [9, 13] was > 1 µM. The Kd [9, 14] was > 1 µM, the Kd [9, 15] was > 1 µM and the Kd [9, 16] was > 1 µM. The Kd [9, 17] was > 1 µM, the Kd [9, 18] was > 1 µM and the Kd [9, 19] was > 1 µM. For the same sequence, the Kd [9, 20] was > 1 µM, the Kd [10, 12] was > 1 µM and the Kd [10, 13] was > 1 µM. For the same sequence, the Kd [10, 14] was > 5 µM, the Kd [10, 15] was > 1 µM and the Kd [10, 16] was > 1 µM. The Kd [10, 17] was > 1 µM, the Kd [10, 18] was > 1 µM and the Kd [10, 19] was > 1 µM. The Kd [10, 20] was > 1 µM, the Kd [11, 12] was > 1 µM and the Kd [11, 13] was > 1 µM. The Kd [11, 14] was > 1 µM, the Kd [11, 15] was > 1 µM and the Kd [11, 16] was > 1 µM. The Kd [11, 17] was > 1 µM, the Kd [11, 18] was > 1 µM and the Kd [11, 19] was > 1 µM. The Kd [11, 20] was > 1 µM.

Reference: article PMC4335062, “Data-Driven Prediction and Design of bZIP Coiled-Coil Interactions” (PLoS Computational Biology, 2015)
